In patent publication US7811771B2, “Method for the functional determination of mannan-binding-lectin associated serine proteases (MASPs) and complexes thereof” (Nederlandse Organisatie voor …, priority 2004, dated 2010):

Legend:
MBL-MASP complex = assay: Effect of inhibitor on serum MASP activity (captured MBL-MASP complex, pro-urokinase detection); assay type: biochemical; details: 0-1 μM BMpg vs DMSO control; human serum captured on mannan coated plate; wild-type pro-urokinase and pyro-Glu-Gly-Arg-pNA; 37° C., 2 h
Experimental: MBL-MASP complexes were captured on a mannan coated plate as described in example 4. After capture, buffer, pro-urokinase and peptide substrate and boroMpg (0-1 μM final concentration) in DMSO, or an equivalent amount of pure DMSO (control) were added and activity was measured. All details were as described in example 4. Activity was expressed as ΔA^405/h^2×1000.
A mannan coated plate was used to capture MBL-MASP complex from diluted human serum. After washing, 100 μl buffer containing 0-1 μM Z-D-Phe-Pro-methoxypropylboroglycine-pinanediolester (BMpg or boroMpg) or buffer containing an identical volume of DMSO (solvent of boroMpg), 15 μl (50 μg/ml) wild-type pro-urokinase and 10 μl (6 mM) pyro-Glu-Gly-Arg-pNA were added. The plate was incubated at 37° C. and colour formation was followed for 2 h with a plate reader at 405 nm. Activities were expressed as ΔA/h^2×1000. All details are as described in Example 4. The results summarized in FIG. 9 show no effect of BMpg on activity of the captured MBL-MASP complex.

MASP-1 = target: T1, MASP-1 (Homo sapiens, UniProt P48740); details: known from Presanis et al. Mol. Immunol. 2003; cited from earlier work
T1 sequence (P48740 20-699): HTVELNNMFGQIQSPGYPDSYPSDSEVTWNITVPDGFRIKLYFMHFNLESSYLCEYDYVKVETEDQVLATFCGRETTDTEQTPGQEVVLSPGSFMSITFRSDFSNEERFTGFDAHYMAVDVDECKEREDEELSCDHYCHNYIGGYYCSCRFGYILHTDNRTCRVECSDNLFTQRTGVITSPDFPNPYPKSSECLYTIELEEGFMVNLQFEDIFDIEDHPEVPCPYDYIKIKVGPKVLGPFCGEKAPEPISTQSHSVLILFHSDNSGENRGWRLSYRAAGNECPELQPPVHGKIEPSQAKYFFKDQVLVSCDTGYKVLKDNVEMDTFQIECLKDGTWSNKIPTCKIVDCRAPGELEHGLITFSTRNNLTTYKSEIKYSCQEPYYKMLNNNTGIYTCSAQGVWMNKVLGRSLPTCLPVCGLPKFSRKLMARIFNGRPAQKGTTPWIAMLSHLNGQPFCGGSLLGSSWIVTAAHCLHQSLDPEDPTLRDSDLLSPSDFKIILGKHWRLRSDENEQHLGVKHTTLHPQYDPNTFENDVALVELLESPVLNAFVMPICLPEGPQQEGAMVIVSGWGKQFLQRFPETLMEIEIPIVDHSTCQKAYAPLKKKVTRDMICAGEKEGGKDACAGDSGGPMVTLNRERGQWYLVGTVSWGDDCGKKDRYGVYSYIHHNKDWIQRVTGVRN

MASP-2 [1] = target: T2, MASP-2 (Homo sapiens, UniProt O00187); details: known from Presanis et al. Mol. Immunol. 2003; cited from earlier work
Target sequence in this assay (O00187 16-686): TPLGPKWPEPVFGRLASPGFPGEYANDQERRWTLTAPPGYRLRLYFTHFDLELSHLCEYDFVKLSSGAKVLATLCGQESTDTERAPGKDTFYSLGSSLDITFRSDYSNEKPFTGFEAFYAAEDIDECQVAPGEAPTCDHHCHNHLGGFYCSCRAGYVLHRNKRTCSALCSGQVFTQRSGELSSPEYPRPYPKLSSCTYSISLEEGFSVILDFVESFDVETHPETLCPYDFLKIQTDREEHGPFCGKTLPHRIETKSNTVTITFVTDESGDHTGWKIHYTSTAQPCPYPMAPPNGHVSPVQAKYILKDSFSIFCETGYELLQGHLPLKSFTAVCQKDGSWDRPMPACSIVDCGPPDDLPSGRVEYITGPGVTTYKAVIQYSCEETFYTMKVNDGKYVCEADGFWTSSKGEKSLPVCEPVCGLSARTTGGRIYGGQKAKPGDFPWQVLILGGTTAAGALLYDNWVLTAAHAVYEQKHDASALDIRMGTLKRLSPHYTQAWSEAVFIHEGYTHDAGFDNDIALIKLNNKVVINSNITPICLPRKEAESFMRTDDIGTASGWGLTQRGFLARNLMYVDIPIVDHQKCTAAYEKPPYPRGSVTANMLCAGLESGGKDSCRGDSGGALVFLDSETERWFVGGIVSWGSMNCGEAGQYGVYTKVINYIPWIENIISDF

MBL-MASP complexes = assay: Determination of MBL-MASP complexes in serum with pro-urokinase substrates; assay type: biochemical, human; details: serum diluted 10-320 fold, mannan coated plate
Experimental: A mannan-coated microtiter plate was used to bind and immobilize MBL-MASP complexes from heterozygous MBL-deficient serum (A/B genotype), homozygous MBL-deficient serum (B/B genotype) and normal serum (A/A genotype) in various dilutions. After washing, wild-type pro-urokinase or substrate 2 and chromogenic peptide pyro-Glu-Gly-Arg-pNA were added. The absorbance change at 405 nm was followed in time. The slopes of A405 versus time-squared graphs were taken as a measure of activity.
Based on the results of example 2 an assay for MBL-MASP complexes in serum was developed. Three different sera were used, serum […] MBL deficiency, serum (B/B) with an homozygous MBL deficiency and a normal serum (A/A). A microtiter plate was coated with mannan, washed and blocked as described in example 2.
Serum samples were diluted 10-320 fold in GVB++buffer (see example 2) and 100 μl of these dilutions were pipetted into wells of the coated microtiter plate. […]
To all wells 100 μl of detection buffer, 10 μl of either wild-type pro-urokinase or pro-urokinase derivative 2 at 7.6 μg/ml and 10 μl of pyro-Glu-Gly-Arg-pNA at 6 mM were added (see example 2). The plate was shaken and A^405 was followed in time with a microtiter plate reader. The slopes of the graphs of A^405 versus time squared were calculated and used as a measure of activity.

MASP-2 [2] = target: T2, MASP-2; assay: Activity of recombinant MASP-2 on novel substrates; assay type: biochemical; design: Recombinant MASP-2 (active form) at 600 μg/ml was serially diluted; details: serially diluted recombinant MASP-2, 37° C., 2 h, A405
Experimental: Various dilutions of purified recombinant MASP-2 were tested for their response with wild-type pro-urokinase based detection and substrate 2 (table 1) based detection. MASP-2 was diluted in buffer to which wt pro-urokinase or pro-urokinase derivative 2 was added followed by pyro-Glu-Gly-Arg-pNA. The plate was incubated for 2h and A^405 was measured (see example 5 for details).
The activity of purified recombinant MASP-2 on wt pro-urokinase and substrate 2 was investigated. Recombinant MASP-2 (active form) at 600 μg/ml was serially diluted in 50 mM Tris HCl pH7.6, 1.5 mM NaCl, 0.5 mM CaCl2, 1 μM ZnCl2, 0.01% (v/v) BRIJ35™. To wells of a microtiter plate 100 μl of MASP-2 dilution, 10 μof wt pro-urokinase at approximately 50 μg/ml) or 10 μl substrate 2 (at approximately 75 μg/ml) were added, followed by 10 μl of peptide substrate pyro Glu-Gly-Arg-pNA (at 6 mM). The plate was incubated at 37° C. and absorbance change at 405 nm was followed in time for 2 h.
Target sequence in this assay (O00187 16-444 limits assumed): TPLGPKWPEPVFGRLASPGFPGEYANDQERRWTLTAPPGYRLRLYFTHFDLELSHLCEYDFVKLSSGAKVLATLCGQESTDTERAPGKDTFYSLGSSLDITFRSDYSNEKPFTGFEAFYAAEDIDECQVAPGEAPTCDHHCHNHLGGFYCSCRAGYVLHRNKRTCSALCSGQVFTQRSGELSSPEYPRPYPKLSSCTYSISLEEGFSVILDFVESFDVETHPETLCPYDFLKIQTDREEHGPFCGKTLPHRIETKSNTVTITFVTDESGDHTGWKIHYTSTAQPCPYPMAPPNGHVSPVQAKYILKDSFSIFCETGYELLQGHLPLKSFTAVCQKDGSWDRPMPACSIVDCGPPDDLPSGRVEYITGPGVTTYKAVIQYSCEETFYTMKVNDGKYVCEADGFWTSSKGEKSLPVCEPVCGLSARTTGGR
Target sequence in this assay (O00187 445-686 limits assumed): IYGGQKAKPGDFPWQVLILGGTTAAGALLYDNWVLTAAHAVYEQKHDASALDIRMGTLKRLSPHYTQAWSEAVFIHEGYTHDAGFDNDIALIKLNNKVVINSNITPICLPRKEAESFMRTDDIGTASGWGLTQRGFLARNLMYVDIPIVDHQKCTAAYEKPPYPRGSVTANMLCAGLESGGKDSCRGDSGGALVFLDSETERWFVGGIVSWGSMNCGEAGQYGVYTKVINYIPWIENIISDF

Row | effect on activity of the captured MBL-MASP complex (ΔA/h^2×1000) (MBL-MASP complex) | activity in normal (A/A) serum (slope of A405 versus time squared) (MBL-MASP complexes) | detection of MASP-2 activity (MASP-2 [2]) | Compound | inhibition of MASP-1 (MASP-1) | inhibition of MASP-2 (MASP-2 [1])
1 | no effect |  |  | COCCC[C@@H](NC(=O)[C@@H]1CCCN1C(=O)[C@@H](Cc1ccccc1)NC(=O)OCc1ccccc1)B1OC2C[C@@H]3C[C@@H](C3(C)C)[C@]2(C)O1 (stereo partly drawn) [BMpg, Z-D-Phe-Pro-methoxypropylboroglycine-pinanediolester] | inhibit MASP-1 | not MASP-2
2 |  | dose dependent activity | can be detected | substrate 2: pro-urokinase mutant with activation site Asn-Leu-Thr-Arg-Ile-Val-Gly-Gly (SEQ ID NO:4) (NLTRIVGG; activation site) |  | 
